Experimental data taken from PubChem BioAssay AID743396 (Broad Institute, 2014).
The source made the active and inactive calls.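 The calls were made as follows: active = fitted curve reaches a 40% rise in fluorescent cells at or below the top valid dose; inactive = opposite-direction effect, or the rest.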

experiment: compound fluorescence in GFP channel, mTEFS cells – imaging, mTEFS fibroblasts, cherry-pick, artefact control for X-chromosome reactivation project, dose response (AID 743396); details: mTEFS fibroblasts autofluorescence, GFP-channel imaging, 3 days; at 19.5 µM (top of the series);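 also: raw share of Hoechst-counted cells scored GFP positive without control normalization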

| SMILES | % fluorescent cells increase |
| --- | --- |
| O=C(Cc1ccccn1)N1CCCCN2[C@H](C1)[C@@H](c1ccc(-c3ccccc3F)cc1)[C@@H]2CO | 0.674% (inactive) |
| OCC[n+]1c2ccccc2nc2ccc(N3CCOCC3)cc21 | 0% (inactive) |
| O=c1[nH]c(=O)n(CCC2=CCCCC2)c(O)c1/C=N/Nc1ccccc1 | 0% (inactive) |

same assay, conditions: mTEFS fibroblasts autofluorescence, GFP-channel imaging, 3 days; at 19.5 µM (top of the series); cells pretreated with 5-aza-dC

| SMILES | % fluorescent cells increase |
| --- | --- |
| COc1ccc(/C=C\c2onc(C)c2S(=O)(=O)N2CCC(C(=O)NCc3ccco3)CC2)cc1 | 0.029% (inactive) |
| Brc1cccc(CNCC2CCCO2)c1 (stereo not given) | 0.009% (inactive) |
| CCC(=O)N1CC(=O)N2[C@@H](CO)[C@@H](c3ccc(-c4ccccc4F)cc3)[C@@H]2C1 | 0% (inactive) |
| COC(C(=O)NCc1ccc(C)cc1)c1ccccc1 (stereo not given) | 0% (inactive) |
| CCN(CC)S(=O)(=O)c1ccc(Cl)c(NC(=O)COC(=O)c2c(C)noc2C)c1 | 0.009% (inactive) |
| Cc1ccc(-c2[nH]c(=S)[nH]c(=O)c2C#N)cc1 | 0.007% (inactive) |
| CC(=O)c1ccc(NC(=O)COC(=O)CCc2ccc(S(=O)(=O)N3CCOCC3)cc2)cc1 | 0.108% (inactive) |
| CC(=O)OCCNc1cc(Sc2nc3ccccc3[nH]2)c2nonc2c1[N+](=O)[O-] | 9.92% (inactive) |
| COc1ccccc1CN1CC[C@H]2[C@H](CO)Nc3ccc(C#Cc4ccccc4)cc3[C@H]21 | 0% (inactive) |
| C/C=C/c1ccc(C2[C@H]3CNC[C@@H]2N3Cc2cc(-c3ccccc3)on2)cc1 (stereo not given in full) | -0.166% (inactive) |
| O=C(CCn1nc(-c2ccc(Cl)cc2)c2ccccc2c1=O)NN1CCOCC1 | 0.116% (inactive) |
| CO[C@@H]1CN(C)C(=O)c2cc(NS(C)(=O)=O)ccc2OC[C@H](C)N(C(=O)C2CCCC2)C[C@H]1C | 0.308% (inactive) |
| COc1ccc(-c2nn(-c3ccccc3)cc2C(=O)NC(=S)Nc2cc(Cl)ccc2Cl)cc1 | 2.13% (inactive) |
| C[C@H](CO)N1C[C@H](C)[C@H](CN(C)C(=O)Nc2ccc(F)cc2)Oc2ncc(C#Cc3cccc(F)c3)cc2C1=O | -0.166% (inactive) |
| CC(C)CCN1CCN(Cc2cc3ccccc3[nH]2)CC1CCO (stereo not given) | 0% (inactive) |
| O=C(COC(=O)c1cc(=O)[nH]c(=O)[nH]1)Nc1cccc(S(=O)(=O)N2CCCCC2)c1 | 0% (inactive) |
| COc1ccc(N(CC(=O)Nc2nccs2)S(=O)(=O)c2c(C)[nH]c(=O)[nH]c2=O)cc1 | 0% (inactive) |
| CN1OC[C@@H]2CN(Cc3ccccc3)[C@H](c3cccc(N4CCOCC4)c3)C[C@@H]21 | 0.013% (inactive) |
| Cc1ccc(S(=O)(=O)Nc2cccc3c2O[C@H](CN(C)C(=O)Nc2cccc4ccccc24)[C@H](C)CN([C@H](C)CO)C3=O)cc1 | 0.048% (inactive) |

| SMILES | % fluorescent cells increase |
| --- | --- |
| CC1CC(C)CN(C(=O)CSCC(=O)Nc2nc(-c3cccs3)cs2)C1 (stereo not given) | 0% (inactive) |
| Cc1nc(NC(=O)C(Cl)Cl)sc1C(=O)N(C)C | 0% (inactive) |
| Cn1cc(/C=C/c2cc[n+](C)cc2)c2cc(Cl)ccc21 | 6.85% (inactive) |
| C[C@H]1CN([C@@H](C)CO)C(=O)c2ccccc2-c2ccccc2CO[C@H]1CN(C)C(=O)[C@@H](Cc1ccccc1)N(C)C | 0% (inactive) |
| COc1ccc(Cl)cc1C(=O)Nc1ccccc1N1CCCCC1 | 2.45% (inactive) |
| NS(=O)(=O)c1cccc(-n2cnnn2)c1 | 0% (inactive) |
| C[C@@H]1CN([C@H](C)CO)C(=O)c2cc(NS(=O)(=O)c3ccc(F)cc3)ccc2O[C@@H](C)CCCCO[C@@H]1CN(C)Cc1ccc2c(c1)OCO2 | 0% (inactive) |
| CCOC(=O)c1c(C)[nH]c(N=Nc2ccc(OC)cc2)c1C | 0.028% (inactive) |
| Cc1nn(-c2ccccc2)c(N)c1N=O | 0% (inactive) |
| O=C1N(c2ccccc2)C[C@@H]2C[C@@H](c3cc4ccccc4o3)N3CCC[C@@]123 | -0.007% (inactive) |
| CCCCCCCCN1C(=O)[C@H](CC(=O)N2CCSCC2)C[C@@]2(C(=O)OCC)CCCC=C12 | 0.056% (inactive) |
| CC(C)CC#Cc1ccc([C@@H]2[C@@H](CO)N3C(=O)CN(C(=O)c4cccc(F)c4)C[C@H]23)cc1 | -0.108% (inactive) |
| CN(C)C=NC(=O)c1cc(C(=O)c2ccc(Cl)cc2Cl)c[nH]1 | 0.032% (inactive) |
| CCn1c(Cl)c(C=O)s/c1=N\S(=O)(=O)c1ccccc1 | 0% (inactive) |
| CC(=O)N(C)C[C@@H]1Oc2ncc(-c3cccnc3)cc2C(=O)N([C@@H](C)CO)C[C@@H]1C | 0.097% (inactive) |
| O=C(CNC(=O)c1ccccc1F)OCc1nc2ccccc2s1 | 0.037% (inactive) |
| O=C(Nc1c(Cl)cccc1Cl)Oc1cccc2cccnc12 | 6.89% (inactive) |
| Cc1ccc(N(C)C(=O)C2CCN(S(=O)(=O)c3ccc4c(c3)oc(=O)n4C)CC2)cc1 | -0.007% (inactive) |
